Measurements: article PMC11943016, “TBG096 Ameliorates Memory Deficiency in AD Mouse Model via Promoting Neurogenesis and Regulation of Hsc70/HK2/PKM2/LAMP2A Signaling Pathway” (International Journal of Molecular Sciences, 2025)

Tests used:
HFD-induced AD mice = test: Neurogenesis: NeuN/BrdU double staining in HFD-induced AD mice; type: in vivo; conditions: 5 mg/kg, vs HFD-only
Procedure: In order to investigate the effect of TBG096 on promoting neuronal regeneration, animal experiments were carried out according to the method previously reported. Fifteen 4-week-old ICR male mice purchased from Zhejiang Academy of Medical Sciences (Hangzhou, China) were randomly divided into three groups, namely the (i) normal control group, (ii) HFD group, and (iii) HFD + TBG096 5 mg/kg group, and given a normal diet or high-fat diet for two months to construct the AD mouse model, respectively. After confirming the successful construction of the AD model, TBG096 was administered once a day at a dose of 5 mg/kg for 1 month, and soybean oil was used as a vehicle. BrdU was then injected into the mice at a dose of 100 mg/kg in four injections over two days, each 12 h apart. Administration of TBG096 was continued for 28 days. At the end of animal experiments, the mice were anesthetized and cardiac […]. The brains of mice were taken, fixed, and sectioned, and immunostaining was performed with NeuN and BrdU antibodies.
At the end of animal experiments, three mice in each group were taken for heart perfusion with cold PBS and 4% paraformaldehyde. After that, the brains of mice were fixed with 4% paraformaldehyde for 24 h and gradually dehydrated with 15% and 30% sucrose solutions for 48 h, respectively. […]

[1] = tested on: Wnt gene family (Wnt10b, Wnt5a, and Wnt1); test: Transcriptome sequencing and qRT-PCR of brain samples of HFD-induced AD mice; type: in vivo; conditions: GSEA-GO, qRT-PCR confirmed Wnt10b and Wnt5a
Procedure: Total RNA was extracted and quantified from 50 mg of the cerebral cortex using TRIzol reagent (Invitrogen, Carlsbad, CA, USA) and NanoDrop (Thermo Fisher Scientific, Waltham, MA, USA), respectively. Subsequently, 2.5 µg of RNA from each sample was reverse-transcribed using a HiFi-MMLV cDNA kit (Cowin Biotechnology Company, Beijing, China). Transcripts were quantified by PCR analysis performed with a CFX 96 Touch (Bio-Rad, Hercules, CA, USA) and SYBR Premixed EX Taq (Takara, Otsu, Japan). PCR was performed under the following conditions: 95 °C for 2 min, followed by 40 cycles, 94 °C for 15 s, 60 °C for 25 s, and 72 °C for 10 s. All results were normalized to the level of 18S RNA, and the relative mRNA transcription levels were estimated by 2^−ΔΔCT. The number of animal samples in each group was five, and all samples were run in triplicate, and their average values were calculated. The mouse primers of Wnt10b (NM_011718.2), Wnt5a (NM_001256224.2), and 18S RNA (NR_003278.3) were synthesized by Sangon Biotech Co., Ltd. (Shanghai, China), and their sequences are as follows: Wnt10b-sense: 5′-[…]-3′; antisense: 5′-[…]-3′. Wnt5a-sense: 5′-[…]-3′; antisense: 5′-[…]-3′. 18S-sense: 5′-[…]-3; antisense: 5′-[…]-3′.
After extracting total RNA (5 µg) from cerebral cortex samples, mRNA was purified using Dynabeads Oligo(dT) (Thermo Fisher, Waltham, MA, USA), involving two purification steps. […]

## O=C(SCCCCCCSCCCC(F)(F)F)c1cccc(O)c1O [TBG096]
HFD-induced AD mice
  number of NeuN+ and BrdU+ neurons in the cerebral cortex: increased numbers
  number of newborn neurons in the hippocampus: elevated
[1]
  expression of the Wnt gene family (Wnt10b, Wnt5a, and Wnt1): enhancing the expression
